The values below come from BindingDB's records for doi:10.1016/j.bmcl.2012.07.045 (Rhône-Poulenc Rorer, 2012).

pIC50: −log10 of the molar value.

In this test the target is Tyrosine-protein kinase SYK (Homo sapiens) (UniProt P43405). The experiment in a line: Inhibition of human recombinant full-length Syk using poly-GT as substrate after 40 mins by radioactive filtration assay.
For the compound `c1cc(Nc2cnccn2)nc(-c2ccnc(N3CCNCC3)c2)c1`, the negative-log IC50 (pIC50) (as a rule, the negative decadic logarithm of the IC50, by convention in mol/L) was 7.21.
With `Cc1ccnc(Nc2cccc(-c3ccnc(NCCN)c3)n2)c1` the figure was 6.70; with `Cc1ccnc(Nc2cccc(-c3ccnc(NCCO)c3)n2)c1`, 5.73; with `O=C(Cc1cccnc1)Nc1cc(Nc2cnccn2)nc(-c2ccnc(N3CCNCC3)c2)c1`, 8.40.
In the case of `Oc1ccc(CNc2cc(Nc3cnccn3)nc(-c3ccnc(N4CCNCC4)c3)c2)cc1`, the negative-log IC50 (pIC50) was 8.10.
On to `CNc1cc(Nc2cnccn2)nc(-c2ccnc(N3CCNCC3)c2)c1`, for which the pIC50 was 8.40.
With `Cc1ccnc(Nc2cccc(-c3cccc(NCCN)c3)n2)c1`, the negative-log IC50 (pIC50) is 7.04.
Take `Cc1ccnc(Nc2cccc(-c3cccc(N)c3)n2)c1`: the negative logarithm of the IC50 (pIC50) is 5.49.
With `O=C(Nc1cc(Nc2cnccn2)nc(-c2ccnc(N3CCNCC3)c2)c1)c1ccc(C(=O)O)nc1`, the negative logarithm of the IC50 (pIC50) is 8.00.
Take `O=C(O)c1ccc(C(=O)Nc2cc(Nc3cnccn3)nc(-c3ccnc(N4CCNCC4)c3)c2)cc1`: the pIC50 was 8.10.
With `Cc1ccnc(Nc2cccc(-c3cccc(CN)c3)n2)c1`, the pIC50 was 5.78.
In the case of `Cc1ccnc(Nc2cccc(-c3ccnc(N4CCC(N)C4)c3)n2)c1` (configuration not stated), the pIC50 was 6.35.
Then `O=C(Nc1cc(Nc2cnccn2)nc(-c2ccnc(N3CCNCC3)c2)c1)c1ccccc1`, with 7.55; and `O=C(Nc1cc(Nc2cnccn2)nc(-c2ccnc(N3CCNCC3)c2)c1)C1CCNCC1`, with 8.40; and `CC(=O)N1CCC(C(=O)Nc2cc(Nc3cnccn3)nc(-c3ccnc(N4CCNCC4)c3)c2)CC1`, with 8.30.
For `Cc1ccnc(Nc2cccc(-c3cccnc3)n2)c1`, the negative logarithm of the IC50 (pIC50) was 5.57.
`Nc1cc(Nc2cnccn2)nc(-c2ccnc(N3CCNCC3)c2)c1`: the pIC50 is 8.40.
Regarding `O=C(Nc1cc(Nc2cnccn2)nc(-c2ccnc(N3CCNCC3)c2)c1)c1cncnc1`, the pIC50 is 8.05.
In the case of `Cc1ccnc(Nc2cccc(-c3ccnc(N4CCNCC4)c3)n2)c1`, the negative-log IC50 (pIC50) is 7.85.
Take `FC(F)(F)c1ccnc(Nc2cccc(-c3ccnc(N4CCNCC4)c3)n2)c1`: the negative-log IC50 (pIC50) is 8.74.
Consider `c1cc(-c2cccc(Nc3cnccn3)n2)cc(N2CCNCC2)c1`, for which the pIC50 was 7.37.
As to `Cc1ccnc(Nc2cccc(-c3ccnc(N4CCCNCC4)c3)n2)c1`, the negative-log IC50 (pIC50) is 7.57.
Take `Cc1cc(C(=O)Nc2cc(Nc3cnccn3)nc(-c3ccnc(N4CCNCC4)c3)c2)n(C)n1`: the pIC50 is 8.15.
For `Cc1ccnc(Nc2cccc(-c3cccc(CCN)c3)n2)c1`, the pIC50 was 6.80.
Take `Cc1ccnc(Nc2cccc(-c3ccnc(N4CCC(N)CC4)c3)n2)c1`: the negative-log IC50 (pIC50) is 6.94.
As to `O=C(Nc1cc(Nc2cnccn2)nc(-c2ccnc(N3CCNCC3)c2)c1)c1cccnc1`, the negative logarithm of the IC50 (pIC50) was 8.22.
For the compound `Cc1ccnc(Nc2cccc(-c3ccnc(NCCCN)c3)n2)c1`, the negative-log IC50 (pIC50) is 6.28.
